biological target: T1, mAChR hM4 (Homo sapiens, UniProt P08173); test: mAChR M4 cell-based functional assay (calcium flux, potentiation of EC20 acetylcholine response); details: % ACh maximum at 30 μM; mAChR hM4 cell-line
T1 construct: expressed in transfected cells; host or cells: CHO-K1 (Chinese hamster ovary) cells
T1 sequence (P08173 1-479): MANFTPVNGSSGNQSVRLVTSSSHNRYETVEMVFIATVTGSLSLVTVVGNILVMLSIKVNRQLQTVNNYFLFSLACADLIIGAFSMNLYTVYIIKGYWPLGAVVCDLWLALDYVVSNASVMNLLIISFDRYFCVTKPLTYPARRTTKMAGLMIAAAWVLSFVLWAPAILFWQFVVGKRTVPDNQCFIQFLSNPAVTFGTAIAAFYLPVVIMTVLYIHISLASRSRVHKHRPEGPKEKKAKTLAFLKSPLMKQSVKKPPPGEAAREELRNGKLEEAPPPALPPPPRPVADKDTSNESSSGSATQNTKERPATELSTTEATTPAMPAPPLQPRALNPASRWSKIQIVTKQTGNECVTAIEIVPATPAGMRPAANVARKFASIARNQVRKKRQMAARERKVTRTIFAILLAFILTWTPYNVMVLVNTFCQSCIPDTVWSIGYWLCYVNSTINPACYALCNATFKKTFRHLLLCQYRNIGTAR
Method in brief: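 CHO-K1 cells expressing human M4, loaded with Fluo-4 Ca2+ dye; potentiation of an EC20 acetylcholine response read as increase in fluorescence static ratio. EC50 and Emax from concentration-dependent increase over the EC20 response.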

SMILES | Emax at 30 µM [%]
COc1ccc(CNC(=O)c2cc3c(C)cc(C)nc3s2)cc1F [Compound 84, N-(3-fluoro-4-methoxybenzyl)-4,6-dimethylthieno[2,3-b]pyridine-2-carboxamide] | 49
Cc1cnc2sc(C(=O)NCc3ccc(-c4cccnc4F)cc3)cc2c1C [Compound 101, N-(4-(2-fluoropyridin-3-yl)benzyl)-4,5-dimethylthieno[2,3-b]pyridine-2-carboxamide] | 41

Further lines, results first:

Emax at 30 µM [%] | SMILES
60 | Cc1cnc2sc(C(=O)NC3COC3)cc2c1C [Compound 102, 4,5-dimethyl-N-(oxetan-3-yl)thieno[2,3-b]pyridine-2-carboxamide]
76 | Cc1cnc2sc(C(=O)NC3CN(c4cccnc4)C3)cc2c1C [Compound 103, 4,5-dimethyl-N-(1-(pyridin-3-yl)azetidin-3-yl)thieno[2,3-b]pyridine-2-carboxamide]

same assay, conditions: mAChR hM4 cell-line; >10,000 estimated for low potency compounds lacking a plateau

SMILES | EC50 [µM]
COc1ccc(CNC(=O)c2cc3c(C)cc(C)nc3s2)cc1F [Compound 84, N-(3-fluoro-4-methoxybenzyl)-4,6-dimethylthieno[2,3-b]pyridine-2-carboxamide] | 6.7
Cc1cc(C)c2cc(C(=O)NCc3ccc(S(=O)(=O)C(F)(F)F)cc3)sc2n1 [Compound 85, 4,6-dimethyl-N-(4-((trifluoromethyl)sulfonyl)benzyl)thieno[2,3-b]pyridine-2-carboxamide] | > 10
Cc1nc2sc(C(=O)N3CCC(c4ccccc4)C3)c(-c3cnn(C)c3)c2c(C)c1Cl (stereo not drawn) [Compound 86, (5-chloro-4,6-dimethyl-3-(1-methyl-1H-pyrazol-4-yl)thieno[2,3-b]pyridin-2-yl)(3-phenylpyrrolidin-1-yl)methanone] | > 10
Cc1nc2sc(C(=O)NC3CCC3)c(-c3cnn(C)c3)c2c(C)c1Cl [Compound 87, 5-chloro-N-cyclobutyl-4,6-dimethyl-3-(1-methyl-1H-pyrazol-4-yl)thieno[2,3-b]pyridine-2-carboxamide] | > 10
Cc1nc2sc(C(=O)NC3CCCOC3)c(-c3cnn(C)c3)c2c(C)c1Cl (stereo not drawn) [Compound 88, 5-chloro-4,6-dimethyl-3-(1-methyl-1H-pyrazol-4-yl)-N-(tetrahydro-2H-pyran-3-yl)thieno[2,3-b]pyridine-2-carboxamide] | > 10
Cc1nc2sc(C(=O)NC3CCS(=O)(=O)C3)c(-c3cnn(C)c3)c2c(C)c1Cl (stereo not drawn) [Compound 89, 5-chloro-N-(1,1-dioxidotetrahydrothiophen-3-yl)-4,6-dimethyl-3-(1-methyl-1H-pyrazol-4-yl)thieno[2,3-b]pyridine-2-carboxamide] | > 10
Cc1nc2sc(C(=O)NC3CC3)c(-c3cnn(C)c3)c2c(C)c1Cl [Compound 90, 5-chloro-N-cyclopropyl-4,6-dimethyl-3-(1-methyl-1H-pyrazol-4-yl)thieno[2,3-b]pyridine-2-carboxamide] | > 10
Cc1nc2sc(C(=O)NC3CCOC3)c(-c3cnn(C)c3)c2c(C)c1Cl (stereo not drawn) [Compound 91, 5-chloro-4,6-dimethyl-3-(1-methyl-1H-pyrazol-4-yl)-N-(tetrahydrofuran-3-yl)thieno[2,3-b]pyridine-2-carboxamide] | > 10
Cc1nc2sc(C(=O)NC3CN(c4cccnc4)C3)c(-c3cnn(C)c3)c2c(C)c1Cl [Compound 92, 5-chloro-4,6-dimethyl-3-(1-methyl-1H-pyrazol-4-yl)-N-(1-(pyridin-3-yl)azetidin-3-yl)thieno[2,3-b]pyridine-2-carboxamide] | > 10
Cc1nc2sc(C(=O)NC3C4CC5CC(C4)CC3C5)c(-c3cnn(C)c3)c2c(C)c1Cl (stereo not drawn) [Compound 93, N-(adamantan-2-yl)-5-chloro-4,6-dimethyl-3-(1-methyl-1H-pyrazol-4-yl)thieno[2,3-b]pyridine-2-carboxamide] | > 10
Cc1nc2sc(C(=O)NC3[C@H]4C[C@H]3C4)c(-c3cnn(C)c3)c2c(C)c1Cl (stereo partly drawn) [Compound 94, N-((1R,3S)-bicyclo[1.1.1]pentan-2-yl)-5-chloro-4,6-dimethyl-3-(1-methyl-1H-pyrazol-4-yl)thieno[2,3-b]pyridine-2-carboxamide] | > 10
Cc1nc2sc(C(=O)NCc3ccc(S(=O)(=O)C(F)(F)F)cc3)c(-c3cnn(C)c3)c2c(C)c1Cl [Compound 95, 5-chloro-4,6-dimethyl-3-(1-methyl-1H-pyrazol-4-yl)-N-(4-((trifluoromethyl)sulfonyl)benzyl)thieno[2,3-b]pyridine-2-carboxamide] | > 10
Cc1nc2sc(C(=O)N[C@H](C)C3CC3)c(-c3cnn(C)c3)c2c(C)c1Cl [Compound 96, (R)-5-chloro-N-(1-cyclopropylethyl)-4,6-dimethyl-3-(1-methyl-1H-pyrazol-4-yl)thieno[2,3-b]pyridine-2-carboxamide] | > 10
Cc1nc2sc(C(=O)N3CCC3)c(-c3cnn(C)c3)c2c(C)c1Cl [Compound 97, azetidin-1-yl(5-chloro-4,6-dimethyl-3-(1-methyl-1H-pyrazol-4-yl)thieno[2,3-b]pyridin-2-yl)methanone] | > 10
Cc1nc2sc(C(=O)NCc3cnn(-c4ccccc4)c3)c(-c3cnn(C)c3)c2c(C)c1Cl [Compound 98, 5-chloro-4,6-dimethyl-3-(1-methyl-1H-pyrazol-4-yl)-N-((1-phenyl-1H-pyrazol-4-yl)methyl)thieno[2,3-b]pyridine-2-carboxamide] | > 10
COc1ccc(CNC(=O)c2sc3nc(C)c(Cl)c(C)c3c2-c2cnn(C)c2)cc1F [Compound 99, 5-chloro-N-(3-fluoro-4-methoxybenzyl)-4,6-dimethyl-3-(1-methyl-1H-pyrazol-4-yl)thieno[2,3-b]pyridine-2-carboxamide] | > 10
Cc1cnc2sc(C(=O)NC3CN(c4ccc(C(F)(F)F)nc4)C3)cc2c1C [Compound 100, 4,5-dimethyl-N-(1-(6-(trifluoromethyl)pyridin-3-yl)azetidin-3-yl)thieno[2,3-b]pyridine-2-carboxamide] | > 10
Cc1cnc2sc(C(=O)NCc3ccc(-c4cccnc4F)cc3)cc2c1C [Compound 101, N-(4-(2-fluoropyridin-3-yl)benzyl)-4,5-dimethylthieno[2,3-b]pyridine-2-carboxamide] | 2.7

Results, then the compound that gave them:

EC50 [µM] | SMILES
> 10 | Cc1cnc2sc(C(=O)NC3COC3)cc2c1C [Compound 102, 4,5-dimethyl-N-(oxetan-3-yl)thieno[2,3-b]pyridine-2-carboxamide]
0.58 | Cc1cnc2sc(C(=O)NC3CN(c4cccnc4)C3)cc2c1C [Compound 103, 4,5-dimethyl-N-(1-(pyridin-3-yl)azetidin-3-yl)thieno[2,3-b]pyridine-2-carboxamide]
> 10 | Cc1cnc2sc(C(=O)NCc3ccc(-c4ccnnc4)s3)cc2c1C [Compound 104, 4,5-dimethyl-N-((5-(pyridazin-4-yl)thiophen-2-yl)methyl)thieno[2,3-b]pyridine-2-carboxamide]
> 10 | Cc1nc2sc(C(=O)NCC3CCC3)c(-c3cnn(C)c3)c2c(C)c1Cl [Compound 105, 5-chloro-N-(cyclobutylmethyl)-4,6-dimethyl-3-(1-methyl-1H-pyrazol-4-yl)thieno[2,3-b]pyridine-2-carboxamide]
> 10 | Cc1nc2sc(C(=O)N3CCCOCC3)c(-c3cnn(C)c3)c2c(C)c1Cl [Compound 106, (5-chloro-4,6-dimethyl-3-(1-methyl-1H-pyrazol-4-yl)thieno[2,3-b]pyridin-2-yl)(1,4-oxazepan-4-yl)methanone]
> 10 | Cc1nc2sc(C(=O)N3CCN(C)CC3)c(-c3cnn(C)c3)c2c(C)c1Cl [Compound 107, (5-chloro-4,6-dimethyl-3-(1-methyl-1H-pyrazol-4-yl)thieno[2,3-b]pyridin-2-yl)(4-methylpiperazin-1-yl)methanone]
> 10 | Cc1nc2sc(C(=O)N3CCC(F)(F)CC3)c(-c3cnn(C)c3)c2c(C)c1Cl [Compound 108, (5-chloro-4,6-dimethyl-3-(1-methyl-1H-pyrazol-4-yl)thieno[2,3-b]pyridin-2-yl)(4,4-difluoropiperidin-1-yl)methanone]
> 10 | Cc1nc2sc(C(=O)N3CC4C(C3)C4(C)C)c(-c3cnn(C)c3)c2c(C)c1Cl (stereo not drawn) [Compound 109, (5-chloro-4,6-dimethyl-3-(1-methyl-1H-pyrazol-4-yl)thieno[2,3-b]pyridin-2-yl)(6,6-dimethyl-3-azabicyclo[3.1.0]hexan-3-yl)methanone]
> 10 | Cc1nc2sc(C(=O)N3CCOCC3)c(-c3cnn(C)c3)c2c(C)c1Cl [Compound 110, (5-chloro-4,6-dimethyl-3-(1-methyl-1H-pyrazol-4-yl)thieno[2,3-b]pyridin-2-yl)(morpholino)methanone]
> 10 | Cc1nc2sc(C(=O)N[C@@H](C)C3CC3)c(-c3cnn(C)c3)c2c(C)c1Cl [Compound 111, (S)-5-chloro-N-(1-cyclopropylethyl)-4,6-dimethyl-3-(1-methyl-1H-pyrazol-4-yl)thieno[2,3-b]pyridine-2-carboxamide]
> 10 | Cc1nc2sc(C(=O)NCC3CC3)c(-c3cnn(C)c3)c2c(C)c1Cl [Compound 112, 5-chloro-N-(cyclopropylmethyl)-4,6-dimethyl-3-(1-methyl-1H-pyrazol-4-yl)thieno[2,3-b]pyridine-2-carboxamide]
> 10 | Cc1nc2sc(C(=O)N3CCCN(C)CC3)c(-c3cnn(C)c3)c2c(C)c1Cl [Compound 113, (5-chloro-4,6-dimethyl-3-(1-methyl-1H-pyrazol-4-yl)thieno[2,3-b]pyridin-2-yl)(4-methyl-1,4-diazepan-1-yl)methanone]
> 10 | Cc1nc2sc(C(=O)NC3COC3)c(-c3ccc4nonc4c3)c2c(C)c1Cl [Compound 114, 3-(benzo[c][1,2,5]oxadiazol-5-yl)-5-chloro-4,6-dimethyl-N-(oxetan-3-yl)thieno[2,3-b]pyridine-2-carboxamide]
> 10 | Cc1nc2sc(C(=O)NC3COC3)c(-c3cccs3)c2c(C)c1Cl [Compound 115, 5-chloro-4,6-dimethyl-N-(oxetan-3-yl)-3-(thiophen-2-yl)thieno[2,3-b]pyridine-2-carboxamide]

Reference: patent US20160200733A1, “SUBSTITUTED THIENO[2,3-B]PYRIDINE-2-CARBOXAMIDE ANALOGS AS POSITIVE ALLOSTERIC MODULATORS OF THE MUSCARINIC ACETYLCHOLINE RECEPTOR M4” (Vanderbilt University, priority 2013, published 2016)
